Data on one molecule can be found in article PMC7647111, “Antileishmanial compounds from Connarus suberosus: Metabolomics, isolation and mechanism of action” (PLoS ONE, 2020).

pIC50: −log10 of the molar value.

Assay [1] deals with L. amazonensis promastigotes. Kind of assay: Antiproliferation assay: L. amazonensis promastigotes (24 h), resazurin. Particulars: Leishmania amazonensis, 24 h of exposure, read-out: IC50. The format is cell-based, Leishmania amazonensis (IFLA/BR/1967/PH8). As for the experimental part:
Leishmania amazonensis promastigotes (IFLA/BR/1967/PH8) for the 24 h exposure test were cultivated in RPMI 1640, supplemented with 20% v/v heat inactivated fetal bovine serum (FBS) and incubated at 26°C until near the end of the log growth phase. Leishmania amazonensis (IFLA/BR/1967/PH8) and L. infantum (MCAN/BR/2008/1112) promastigotes used in the 72 h exposure test were cultivated in Warren’s medium (containing brain heart infusion- BHI plus hemin and folic acid), supplemented with 10% FBS, 0.1% of the antibiotics: 100 UI/mL penicillin G and 0.1 mg/mL streptomycin. Leishmania amazonensis (IFLA/BR/1967/PH8) transfected with the red fluorescent protein (RFP) gene was cultured in M199 medium (containing 0.1 mmol/L adenine, 40 mmol/L hepes, 0.0005% hemin and 0.0002% biotin), supplemented with 10% FBS, and 0.1% of the antibiotic. Parasites were maintained at 25°C in a BOD incubator.
Extracts and fractions were tested against L. amazonensis (IFLA/BR/1967/PH8) promastigote cells in a 96-well plate at a concentration of 10^6 cells/well. Each sample was solubilized in DMSO (<1%) since it was not soluble directly in the medium. Extracts were tested at 100 μg/mL and 50 μg/mL. […] Plates were read at 570 nm and 595 nm in a microplate reader (BiochromAsys UVM 340) after cell lysis with sodium dodecyl sulfate (SDS). Viability was calculated based on the equations described by Kulshrestha.
In general terms: Alamar Blue is a resazurin reagent that responds to reducing activity.

The subject of assay [2] is L. amazonensis promastigotes. Briefly: Mitochondrial membrane potential (MitoTracker). Particulars: 24 h; 2 at 33.8 μM, 3 at 11.4 μM; FCCP 5.0 μM for 10 min. In kind it is cell-based, Leishmania amazonensis. The protocol:
After 24 h of incubation at 25°C, the parasite concentration was adjusted to 5x10^6 cells/mL and stained with 500 nM MitoTracker (Invitrogen, Eugene, OR, USA) in the dark for 40 min at 37°C. After washing twice with PBS, samples were transferred in triplicate to a black 96-well plate, and fluorescence measured in a spectrofluorometer (FLx800, BioTek Instruments, Inc., Winooski, VT, USA) at 540/600 nm excitation/emission. […] Louis, MO, USA) for 10 min were used to obtain maximal mitochondrial depolarization (positive control).

The subject of the next assay is L. infantum amastigotes. Kind of assay: L. infantum amastigotes assay (Giemsa, infection index). The format is cell-based, Leishmania infantum. As for the experimental part: Peritoneal macrophages (6 x 10^5 cells) were plated on round glass coverslips within 24-well plates in RPMI 1640 medium supplemented with FBS and 20 mM L-glutamine, pH 7.2, and incubated for 24 h at 37°C in 5% CO2. Stationary-phase promastigotes (6 x 10^6 cells, at a ratio of 10 parasites per macrophage) were then added to the wells, and cultures incubated for 24 h at 37°C in 5% CO2. Non-internalized parasites were removed by extensive PBS solution washing and infected macrophages subsequently treated with nontoxic concentrations of: compound 3 (6.25 μg/mL to 0.18 μg/mL) or miltefosine (10.0 μg/mL to 0.6 μg/mL, positive control) for 72 h at 37°C in 5% CO2. After compound exposure, cells were fixed with absolute ethanol and stained with Giemsa. A total of 200 macrophages were counted under a light microscope. The infection index was determined by the […] percentage of infected macrophages multiplied by the mean number of amastigotes per macrophage out of 200 macrophages.

In general, pIC50 refers to the IC50 on a negative log10 scale, so that one unit is a factor of ten. As for `C=C[C@@H](c1cc(CC=C(C)C)ccc1O)c1cc(CC=C(C)C)c(OC)cc1O` [Compound 3, connarin], the pIC50 in assay [1] is 4.69; in the assay with L. infantum amastigotes (Leishmania infantum, intracellular, 72 h), 5.11. In assay [2], the “reduction in mitochondrial membrane potential (ΔΨm)” value was 26.5%. The “SI (Selectivity Index)” value with L. infantum amastigotes (L. infantum amastigotes) is 2.4.
